Measurements taken from ChEMBL document CHEMBL1131352, “Identification of a series of 1,2,3,4-tetrahydroisoquinolinyl-benzamides with potential anticonvulsant activity” (Bioorg Med Chem Lett, 1998).

Key:
Mus musculus [1] = organism: Mus musculus; assay: Anticonvulsant activity was determined in mouse maximal electroshock seizure threshold (MEST) model at 1 hour post dose.; format: functional
SB-204269 binding site [2] = assay: Inhibition of [3H]SB-204269 binding in rat forebrain; format: tissue-based
Rattus norvegicus [3] = organism: Rattus norvegicus; assay: Anticonvulsant activity was determined in rat maximal electroshock seizure threshold (MEST) model at 4 hour post dose.; format: functional
SB-204269 binding site [4] = assay: Binding affinity for [3H]SB-204269 in rat forebrain; format: tissue-based
Mus musculus [5] = organism: Mus musculus; assay: Anticonvulsant activity was determined in mouse maximal electroshock seizure threshold (MEST) model at 1 hour post dose; format: functional
Rattus norvegicus [6] = organism: Rattus norvegicus; assay: Anticonvulsant activity was determined in rat maximal electroshock seizure threshold (MEST) model at 4 hour post dose; format: functional

SMILES	Log Ki (SB-204269 binding site [2])	Increase (Mus musculus [1])	other results
COc1cc(C(C)(C)C)c(Cl)cc1C(=O)Nc1cccc2c1CCN(C)C2	-6.9		
COc1cc(C(C)(C)C)ccc1C(=O)Nc1ccc2c(c1)CCN(C)C2	-6.4	4%	
COc1cc(C(C)(C)C)ccc1C(=O)Nc1cccc2c1CCN(C)C2	-7.7	140%	Increase (Rattus norvegicus [3]): 330%
COc1ccccc1C(=O)Nc1cccc2c1CCN(C)C2	-5.8		
COc1cc(N)c(Cl)cc1C(=O)Nc1cccc2c1CN(C)CC2	-6.1		
COc1cc([N+](=O)[O-])c(Cl)cc1C(=O)Nc1cccc2c1CCN(C)C2	-6.8		
COc1cc(C(C)(C)C)ccc1C(=O)Nc1ccc2c(c1)CN(C)CC2	-7.6	130%	Increase (Rattus norvegicus [3]): 110%
CC(=O)c1ccc2c(c1)[C@H](NC(=O)c1ccc(F)cc1)[C@@H](O)C(C)(C)O2 [CARABERSAT]			Log Ki (SB-204269 binding site [4]): -7.3; Increase (Mus musculus [5]): 100%; Increase (Rattus norvegicus [6]): 570%
CN1CCc2c(cccc2NC(=O)c2ccc(C(C)(C)C)cc2)C1	-6		
CN1CCc2c(cccc2NC(=O)c2cccc(Cl)c2)C1	< -5		

Now from value to molecule, other results behind:

Log Ki (SB-204269 binding site [2])	SMILES	Increase (Mus musculus [1])	other results
-7.9	CCc1cc(OC)c(C(=O)Nc2cccc3c2CCN(C)C3)cc1Cl	100%	
-7.2	COc1ccc(Cl)cc1C(=O)Nc1ccc2c(c1)CN(C)CC2	4%	
-7.6	COc1cc(C)c(Cl)cc1C(=O)Nc1cccc2c1CCN(C)C2	50%	
-5.4	COc1c(Cl)cc(Cl)cc1C(=O)Nc1cccc2c1CCN(C)C2		
-7	COc1ccc(Cl)cc1C(=O)Nc1cccc2c1CCN(C)C2	20%	
-7.3	CCc1ccc(C(=O)Nc2cccc3c2CCN(C)C3)c(OC)c1	60%	
-6.1	COc1cc(Cl)ccc1C(=O)Nc1cccc2c1CCN(C)C2		
-7.8	COc1cc(N)c(Cl)cc1C(=O)Nc1cccc2c1CCN(C)C2	25%	
